Where a name gives a salt, the structure may show the parent alone.

The target of the first data set is T1, TAAR1 (Mus musculus, UniProt Q923Y8).
T1 construct: expressed in transfected cells; host or cells: HEK293 (ATCC # CRL-1573), stably transfected with pIRESneo2 expression plasmid; membranes prepared
T1 sequence (Q923Y8 whole entry): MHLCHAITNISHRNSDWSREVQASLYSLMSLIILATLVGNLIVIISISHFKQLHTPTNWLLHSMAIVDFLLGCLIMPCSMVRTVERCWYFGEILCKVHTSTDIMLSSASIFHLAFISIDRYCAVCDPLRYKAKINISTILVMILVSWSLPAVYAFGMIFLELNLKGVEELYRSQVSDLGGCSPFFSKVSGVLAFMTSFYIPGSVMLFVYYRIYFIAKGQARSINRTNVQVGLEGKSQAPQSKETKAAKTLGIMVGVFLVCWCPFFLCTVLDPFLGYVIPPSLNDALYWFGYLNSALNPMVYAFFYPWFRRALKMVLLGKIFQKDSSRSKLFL
Description: Radioligand binding assay on membranes of HEK293 cells stably expressing TAAR1. As to conditions: mouse TAAR1; radioligand [3H]-rac-2-(1,2,3,4-tetrahydro-1-naphthyl)-2-imidazoline at 60 nM; 4° C., 30 min. As for the experimental part: For the construction of expression plasmids the coding sequences of human, rat and mouse TAAR 1 were amplified from genomic DNA essentially as described by Lindemann et al.. The Expand High Fidelity PCR System (Roche Diagnostics) was used with 1.5 mM Mg^2+ and purified PCR products were cloned into pCR2.1-TOPO cloning vector (Invitrogen) following the instructions of the manufacturer. PCR products were subcloned into the pIRESneo2 vector (BD Clontech, Palo Alto, Calif.), and expression vectors were sequence verified before introduction in cell lines.
For the generation of stably transfected cell lines HEK293 cells were transfected with the pIRESneo2 expression plasmids containing the TAAR coding sequences (described above) with Lipofectamine 2000 (Invitrogen) according to the instructions of the manufacturer, and 24 hrs post transfection the culture medium was supplemented with 1 mg/ml G418 (Sigma, Buchs, Switzerland). After a culture period of about 10 d clones were isolated, expanded and tested for responsiveness to trace amines (all compounds purchased from Sigma) with the cAMP Biotrak Enzyme immunoassay (EIA) System (Amersham) following the non-acetylation EIA procedure provided by the manufacturer.
Cells at confluence were rinsed with ice-cold phosphate buffered saline without Ca^2+ and Mg^2+ containing 10 mM EDTA and pelleted by centrifugation at 1000 rpm for 5 min at 4° C. The pellet was then washed twice with ice-cold phosphate buffered saline and cell pellet was frozen immediately by immersion in liquid nitrogen and stored until use at −80° C. Cell pellet was then suspended in 20 ml HEPES-NaOH (20 mM), pH 7.4 containing 10 mM EDTA, and homogenized with a Polytron (PT 3000, Kinematica) at 10,000 rpm for 10 s. The homogenate was centrifuged at 48,000×g for 30 min at 4° C. and the pellet resuspended in 20 ml HEPES-NaOH (20 mM), pH 7.4 containing 0.1 mM EDTA (buffer A), and homogenized with a Polytron at 10,000 rpm for 10 s. The homogenate was then centrifuged at 48,000×g for 30 min at 4° C. and the pellet resuspended in 20 ml buffer A, and homogenized with a Polytron at 10,000 rpm for 10 s. Protein concentration was determined by the method of Pierce (Rockford, Ill.). The homogenate was then centrifuged at 48,000×g for 10 min at 4° C., resuspended in HEPES-NaOH (20 mM), pH 7.0 including MgCl2 (10 mM) and […] homogenized with a Polytron at 10,000 rpm for 10 s.
Binding assay was performed at 4° C. in a final volume of 1 ml, and with an incubation time of 30 min. […] Non-specific binding was defined as the amount of [^3H]-rac-2-(1,2,3,4-tetrahydro-1-naphthyl)-2-imidazoline bound in the presence of the appropriate unlabelled ligand (10 μM). Competing ligands were tested in a wide range of concentrations (10 pM-30 μM). […] Each experiment was performed in duplicate. Al incubations were terminated by rapid filtration through UniFilter-96 plates (Packard Instrument Company) and glass filter GF/C, pre-soaked for at least 2 h in polyethylenimine 0.3%, and using a Filtermate 96 Cell Harvester (Packard Instrument Company). The tubes and filters were then washed 3 times with 1 ml aliquots of cold buffer B. Filters were not dried and soaked in Ultima gold (45 μl/well, Packard Instrument Company) and bound radioactivity was counted by a TopCount Microplate Scintillation Counter (Packard Instrument Company).
A word on the Ki: it is a measure of affinity in units of concentration, obtained from inhibition or displacement. A higher Ki goes with lower affinity. In turn, `CCc1ccc(Br)c(CC)c1CC1=NCCN1` [Example 32, 2-(3-Bromo-2,6-diethyl-benzyl)-4,5-dihydro-1H-imidazole] came in with a Ki of 0.005 µM.

For the compound `CCc1cccc(OC)c1CC1=NCCN1` [Example 9, 2-(2-Ethyl-6-methoxy-benzyl)-4,5-dihydro-1H-imidazole], the Ki was found to be 0.01 µM.

`Clc1cccc(CC2=NCCN2)c1Cl` [Example 17, 2-(2,3-Dichloro-benzyl)-4,5-dihydro-1H-imidazole] yielded a Ki of 0.021 µM.

The compound “4-Tritio-2-naphthalen-1-ylmethyl-4,5-dihydro-1H-imidazole [Example 113]” gave an inhibition constant (Ki) of 0.007 µM.

As to `Cc1sc(C)c(CC2=NCCN2)c1C` [Example 109, 2-(2,4,5-Trimethyl-thiophen-3-ylmethyl)-4,5-dihydro-1H-imidazole], the Ki was 0.004 µM.

Compound `COc1c(CC2=NCCN2)ccc2occc12` [Example 169, 2-(4-Methoxy-benzofuran-5-ylmethyl)-4,5-dihydro-1H-imidazole hydrochloride] yielded a Ki of 0.045 µM.

`FC(F)(F)c1cccc(CC2=NCCN2)c1Cl` [Example 59, 2-(2-Chloro-3-trifluoromethyl-benzyl)-4,5-dihydro-1H-imidazole] returned an inhibitory constant (Ki) of 0.041 µM.

As to `Cc1cc(C)c(CC2=NCCN2)c(C)c1` [Example 118, 2-(2,4,6-Trimethyl-benzyl)-4,5-dihydro-1H-imidazole, reference compound], the inhibitory constant (Ki) was 0.017 µM.

Consider `Cc1cc(C)c(Cc2ncc[nH]2)c(C)c1` [Example 137, 2-(2,4,6-Trimethyl-benzyl)-1H-imidazole], for which the Ki was 0.038 µM.

Compound `CCc1ccc(Cl)c(CC)c1CC1=NCCN1` [Example 196, 2-(3-Chloro-2,6-diethyl-benzyl)-4,5-dihydro-1H-imidazole] showed a Ki of 0.023 µM.

For `Brc1ccc(CC2=NCCN2)c2ccccc12` [Example 104, 2-(4-Bromo-naphthalen-1-ylmethyl)-4,5-dihydro-1H-imidazole], the affinity corresponds to a Ki of 0.008 µM.

Compound `Clc1ccc(CC2=NCCN2)cc1Cl` [Example 121, 2-(3,4-Dichloro-benzyl)-4,5-dihydro-1H-imidazole] showed an inhibition constant Ki of 0.023 µM.

The compound `Cc1cc(C)c(C)c(CC2=NCCN2)c1C` [Example 116, 2-(2,3,5,6-Tetramethyl-benzyl)-4,5-dihydro-1H-imidazole] returned a Ki of 0.008 µM.

Compound `Brc1ccccc1CC1=NCCN1` [Example 124, 2-(2-Bromo-benzyl)-4,5-dihydro-1H-imidazole] displayed a Ki of 0.044 µM.

Consider `COc1cccc(CC2=NCCN2)c1OC` [Example 122, 2-(2,3-Dimethoxy-benzyl)-4,5-dihydro-1H-imidazole], for which the Ki came to 0.025 µM.

The compound `Cc1cccc(Br)c1CC1=NCCN1` [Example 57, 2-(2-Bromo-6-methyl-benzyl)-4,5-dihydro-1H-imidazole] gave an inhibitory constant (Ki) of 0.029 µM.

The compound `c1cc(CC2=NCCN2)c2occc2c1` [Example 107, 2-Benzofuran-7-ylmethyl-4,5-dihydro-1H-imidazole] returned an inhibition constant Ki of 0.022 µM.

`CCc1ccccc1CC1=NCCN1` [Example 54, 2-(2-Ethyl-benzyl)-4,5-dihydro-1H-imidazole] showed an inhibition constant Ki of 0.016 µM.

In turn, `CCc1cc(OC)cc(CC)c1Cc1ncc[nH]1` [Example 210, 2-(2,6-Diethyl-4-methoxy-benzyl)-1H-imidazole] registered an inhibition constant Ki of 0.048 µM.

The compound `COc1cc(C)c(CC2=NCCN2)cc1C` [Example 33, 2-(4-Methoxy-2,5-dimethyl-benzyl)-4,5-dihydro-1H-imidazole hydrochloride] gave a Ki of 0.014 µM.

Turning to `Cc1cc(C)c(C)c(Cc2ncc[nH]2)c1C` [Example 71, 2-(2,3,5,6-Tetramethyl-benzyl)-1H-imidazole], the Ki was found to be 0.01 µM.

Regarding `c1cc2ccc(CC3=NCCN3)cc2o1` [Example 170, 2-Benzofuran-6-ylmethyl-4,5-dihydro-1H-imidazole hydrochloride], the affinity, expressed as Ki, was 0.026 µM.

`COc1cc(Br)c(CC2=NCCN2)cc1OC` [Example 34, 2-(2-Bromo-4,5-dimethoxy-benzyl)-4,5-dihydro-1H-imidazole hydrochloride] registered an inhibition constant Ki of 0.031 µM.

`CCOc1ccc(CC)c(Cc2ncc[nH]2)c1CC` [Example 217, 2-(3-Ethoxy-2,6-diethyl-benzyl)-1H-imidazole] displayed an inhibition constant Ki of 0.024 µM.

Compound `c1ccc2c(CC3=NCCN3)cccc2c1` [Example 140, 2-Naphthalen-1-ylmethyl-4,5-dihydro-1H-imidazole, reference compound] came in with an inhibitory constant (Ki) of 0.007 µM.

`Cc1c(C)c(C)c(Cc2ncc[nH]2)c(C)c1C` [Example 72, 2-Pentamethylphenylmethyl-1H-imidazole] gave a Ki of 0.017 µM.

Take `COc1cc(C)c(CC2=NCCN2)c(C)c1` [Example 123, 2-(4-Methoxy-2,6-dimethyl-benzyl)-4,5-dihydro-1H-imidazole]: the Ki amounted to 0.028 µM.

`Nc1c(Cl)cc(CC2=NCCN2)cc1Cl` [Example 125, 2,6-Dichloro-4-(4,5-dihydro-1H-imidazol-2-ylmethyl)-phenylamine, reference compound] registered an inhibitory constant (Ki) of 0.048 µM.

For the compound `CCc1ccc(Oc2ccccc2)c(CC)c1Cc1ncc[nH]1` [Example 220, 2-(2,6-Diethyl-3-phenoxy-benzyl)-1H-imidazole], the inhibition constant (Ki) was determined as 0.013 µM.

For `Oc1ccc2ccccc2c1CC1=NCCN1` [Example 172, 1-(4,5-Dihydro-1H-imidazol-2-ylmethyl)-naphthalen-2-ol hydrochloride], the Ki was 0.05 µM.

For the compound `CCc1ccc(F)c(CC)c1Cc1ncc[nH]1` [Example 202, 2-(2,6-Diethyl-3-fluoro-benzyl)-1H-imidazole], the inhibition constant Ki was determined as 0.034 µM.

For the compound `c1cc(CC2=NCCN2)c2ccoc2c1` [Example 168, 2-Benzofuran-4-ylmethyl-4,5-dihydro-1H-imidazole hydrochloride], affinity was put at a Ki of 0.045 µM.

Take `CCc1cc(Oc2ccccc2)cc(CC)c1Cc1ncc[nH]1` [Example 219, 2-(2,6-Diethyl-4-phenoxy-benzyl)-1H-imidazole]: the affinity, expressed as Ki, was 0.012 µM.

Compound `Cc1c(C)c(C)c(CC2=NCCN2)c(C)c1C` [Example 115, 2-Pentamethylphenylmethyl-4,5-dihydro-1H-imidazole] showed a Ki of 0.007 µM.

The compound `Cc1ccc2ccoc2c1CC1=NCCN1` [Example 106, 2-(6-Methyl-benzofuran-7-ylmethyl)-4,5-dihydro-1H-imidazole] gave a Ki of 0.017 µM.

`[3H]c1ccc(CC)c(Cc2ncc[nH]2)c1CC` [Example 112, 2-(2,6-Diethyl-3-tritio-benzyl)-1H-imidazole] displayed a Ki of 0.025 µM.

Take `Cc1sc(C)c(Cc2ncc[nH]2)c1C` [Example 110, 2-(2,4,5-Trimethyl-thiophen-3-ylmethyl)-1H-imidazole]: the affinity corresponds to a Ki of 0.021 µM.

`CCc1cccc(C)c1CC1=NCCN1` [Example 11, 2-(2-Ethyl-6-methyl-benzyl)-4,5-dihydro-1H-imidazole] returned a Ki of 0.007 µM.

On to `COc1ccc2ccccc2c1CC1=NCCN1` [Example 149, 2-(2-Methoxy-naphthalen-1-ylmethyl)-4,5-dihydro-1H-imidazole], for which the Ki was found to be 0.012 µM.

In turn, `CCOc1cc(CC)c(Cc2ncc[nH]2)c(CC)c1` [Example 215, 2-(4-Ethoxy-2,6-diethyl-benzyl)-1H-imidazole] had an inhibition constant (Ki) of 0.029 µM.

Test system in another data set: not given
Experiment: not given
Conditions: not given
One may read the melting point as the temperature, or range, at which the solid turns liquid. `Brc1ccc(CC2=NCCN2)c2ccccc12` [Example 104, 2-(4-Bromo-naphthalen-1-ylmethyl)-4,5-dihydro-1H-imidazole] displayed a melting point of 133 to 135 °C.
